The values that follow come from ChEMBL document CHEMBL1681702, “Biological activity and ligand binding mode to the progesterone receptor of A-homo analogues of progesterone” (Bioorg Med Chem, 2011).

Active and inactive are the calls of the source. No cut-off for these calls is given here.

The target in test [1] is T1, Mineralocorticoid receptor (Homo sapiens) (UniProt P08235).
T1 sequence (whole entry): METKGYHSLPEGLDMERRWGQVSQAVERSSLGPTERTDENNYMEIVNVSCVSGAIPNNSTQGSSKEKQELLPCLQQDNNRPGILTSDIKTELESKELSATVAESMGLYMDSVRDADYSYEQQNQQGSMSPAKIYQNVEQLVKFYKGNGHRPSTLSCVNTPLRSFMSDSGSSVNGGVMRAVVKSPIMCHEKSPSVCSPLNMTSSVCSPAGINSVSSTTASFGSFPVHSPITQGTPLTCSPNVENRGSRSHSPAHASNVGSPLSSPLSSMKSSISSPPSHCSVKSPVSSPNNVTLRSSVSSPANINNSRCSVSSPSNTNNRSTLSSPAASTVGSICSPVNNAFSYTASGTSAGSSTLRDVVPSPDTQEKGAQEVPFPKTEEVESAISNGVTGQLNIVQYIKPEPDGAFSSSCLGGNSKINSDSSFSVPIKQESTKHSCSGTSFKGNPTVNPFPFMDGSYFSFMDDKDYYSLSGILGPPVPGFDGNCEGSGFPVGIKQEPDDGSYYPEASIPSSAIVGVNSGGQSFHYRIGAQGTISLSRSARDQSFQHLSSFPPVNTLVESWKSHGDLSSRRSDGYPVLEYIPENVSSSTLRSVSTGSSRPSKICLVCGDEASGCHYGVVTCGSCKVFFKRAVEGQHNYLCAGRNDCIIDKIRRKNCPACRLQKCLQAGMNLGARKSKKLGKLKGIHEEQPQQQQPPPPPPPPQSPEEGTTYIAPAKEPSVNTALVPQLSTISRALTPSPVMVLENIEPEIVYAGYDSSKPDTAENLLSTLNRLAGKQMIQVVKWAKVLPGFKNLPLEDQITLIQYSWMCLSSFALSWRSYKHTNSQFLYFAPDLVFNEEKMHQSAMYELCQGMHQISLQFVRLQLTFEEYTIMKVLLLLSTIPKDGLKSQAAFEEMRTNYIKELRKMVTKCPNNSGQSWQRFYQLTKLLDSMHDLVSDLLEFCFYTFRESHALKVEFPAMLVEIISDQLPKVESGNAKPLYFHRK
The experiment in a line: Transactivation activity at human MR expressed in human Cos1 cells co-transfected with luciferase reporter gene linked to MMTV promoter and pCMV-LacZ vector at 10^-5 M after 24 hrs. Type of test: cell-based. A general note: A reporter such as luciferase makes a cellular process visible.

The target of test [2] is T2, Progesterone receptor (Homo sapiens) (UniProt P06401).
T2 sequence (whole entry): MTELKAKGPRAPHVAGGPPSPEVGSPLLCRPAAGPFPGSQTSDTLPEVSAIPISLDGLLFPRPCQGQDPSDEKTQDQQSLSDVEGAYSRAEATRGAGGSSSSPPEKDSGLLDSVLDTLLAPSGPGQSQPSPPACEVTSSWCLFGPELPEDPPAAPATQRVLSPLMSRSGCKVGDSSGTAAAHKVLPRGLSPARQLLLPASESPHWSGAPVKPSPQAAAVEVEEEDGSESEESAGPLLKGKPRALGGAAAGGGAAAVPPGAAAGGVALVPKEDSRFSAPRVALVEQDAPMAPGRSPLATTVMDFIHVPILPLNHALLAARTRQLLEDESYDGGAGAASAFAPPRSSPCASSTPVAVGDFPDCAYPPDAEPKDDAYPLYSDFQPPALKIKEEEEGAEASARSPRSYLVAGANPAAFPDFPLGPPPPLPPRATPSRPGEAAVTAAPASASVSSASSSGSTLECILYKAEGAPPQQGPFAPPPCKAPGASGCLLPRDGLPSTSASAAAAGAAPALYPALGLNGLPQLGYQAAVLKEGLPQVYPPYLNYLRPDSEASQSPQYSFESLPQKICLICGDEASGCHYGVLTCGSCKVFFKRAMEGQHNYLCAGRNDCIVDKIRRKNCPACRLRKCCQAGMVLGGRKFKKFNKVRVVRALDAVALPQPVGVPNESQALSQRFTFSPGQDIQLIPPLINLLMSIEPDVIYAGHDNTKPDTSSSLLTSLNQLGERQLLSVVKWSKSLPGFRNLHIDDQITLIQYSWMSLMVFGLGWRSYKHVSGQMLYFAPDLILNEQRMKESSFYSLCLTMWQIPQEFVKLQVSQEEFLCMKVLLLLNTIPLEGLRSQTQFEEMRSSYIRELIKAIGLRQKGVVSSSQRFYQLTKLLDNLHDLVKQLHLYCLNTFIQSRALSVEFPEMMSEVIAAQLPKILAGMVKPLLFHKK
Briefly: Transactivation activity at human progesterone receptor isoform B expressed in human Cos1 cells co-transfected with luciferase reporter gene linked to MMTV promoter at 10^-6 M after 24 hrs. It counts as cell-based.

In test [3] the target is T1, Mineralocorticoid receptor (Homo sapiens). The experiment in a line: Antagonist activity at human MR expressed in human Cos1 cells co-transfected with luciferase reporter gene linked to MMTV promoter and pCMV-LacZ vector assessed as effect on aldosterone-induced activity at 10^-5 M after 24 hrs. It counts as functional, cell-based.
Test [4] deals with T2, Progesterone receptor (Homo sapiens). The experiment in a line: Agonist activity at human progesterone receptor in human T47D cells assessed as induction of Bcl-xL gene expression at 10^-6 M after 6 hrs by quantitative PCR. It counts as functional, cell-based.
Test [5] has the same target. Briefly: Transactivation activity at human progesterone receptor isoform B expressed in human Cos1 cells co-transfected with luciferase reporter gene linked to MMTV promoter at 10^-7 M after 24 hrs. It counts as cell-based.

Consider `CC(=O)[C@H]1CC[C@H]2[C@@H]3CC=C4CCC(=O)CC[C@]4(C)[C@H]3CC[C@]12C`, for which the result in test [1] and in test [3] was inactive. Besides, the outcome in test [2], in test [4] and in test [5] was Active.
With `CC(=O)[C@H]1CC[C@H]2[C@@H]3CC=C4CC(=O)CCC[C@]4(C)[C@H]3CC[C@]12C`, the outcome in test [1] and in test [3] was inactive. Moreover, the result in test [2], in test [4] and in test [5] was Active.
